{"source": "patent US20180280337A1", "about": "“NUTRITIONAL COMPOSITIONS COMPRISING SN-1(3) MONOACYLGLYCEROLS FOR USE IN THE TREATMENT OF GROWTH DELAY IN INFANTS OR CHILDREN” (NESTEC S.A., priority 2014, published 2018)", "key": {"[1]": {"assay": "Lipid maldigestion or malabsorption rat model (XENICAL-induced): EPA level in red blood cells and tissue after feeding EPA glycerides or fish oil", "type": "in vivo", "settings": "for level of EPA incorporated in red blood cells: rats given XENICAL, day 7 data (FIG. 3)", "protocol": "The concept was tested in a lipid maldigestion or malabsorption rat model. The maldigestion or malabsorption condition was obtained using XENICAL® (ORLISTAT, tetrahydrolipstatin), a pancreatic and gastric lipases inhibitor. Rats were fed during 21 days with long-chain polyunsaturated fatty acid (LC-PUFA) supplements containing mainly eicosapentaenoic (EPA) acid. Fish oil was used as a source of triacylglycerols, and different EPA glycerides were evaluated: Vanillin acetal of 2-EPA (from Stepan Lipid Nutrition); 1,3 Diacetyl-2 EPA (from Stepan Lipid Nutrition) and Sn-1(3)-MAG-EPA (purchased from Cognis GmbH, Germany). XENICAL® (ORLISTAT) was given at a level sufficient to decrease lipid absorption by 40%. A group receiving fish oil without XENICAL® (ORLISTAT) was used as a positive control. At different time intervals (D3, D7, […]), the fatty acid profiles of red blood cells and plasma lipids were determined. At the end of the experiment, the fatty acid profiles of different tissues were determined. The main objective was to follow the level of EPA in red blood cells and plasma lipids. The main comparison evaluated was the difference in EPA level between the group receiving EPA glycerides such as EPA-containing sn-1(3) MAG, in combination with XENICAL® (ORLISTAT) and the positive control group […]."}, "[2]": {"assay": "Clinical study comparing sn-1(3) MAG and fish oil (TAG) in delivering EPA under lipid maldigestion induced by XENICAL", "type": "in vivo, humans", "settings": "for chronic effect: accretion of EPA in erythrocytes as percentage of total fatty acids: compared with fish oil + XENICAL, p=0.0001 (FIG. 6)", "protocol": "This clinical study compared the efficacy of sn-1(3) MAG and fish oil (TAG) in delivering EPA in humans under lipid maldigestion conditions induced by XENICAL® (ORLISTAT). The comparison was tested in volunteers treated with XENICAL® to induce lipid maldigestion or not treated with XENICAL® (ORLISTAT). The primary objective was to assess accretion of EPA in erythrocytes over 21 days when consumed as fish oil (TAG) or sn-1(3) MAG. The secondary objectives were to assess accretion of EPA in plasma over 21 days and also to assess the pharmacokinetics of EPA after an acute dose either in the form of sn-1(3) MAG or TAG (AUC in chylomicrons over 10 hours postprandial). See FIG. 4 that describes the clinical study timeline."}}, "data": [{"smiles": "CCCCCCCCCCC[C@@H](C[C@@H]1OC(=O)[C@H]1CCCCCC)OC(=O)[C@H](CC(C)C)NC=O", "note": "[XENICAL, tetrahydrolipstatin, reference compound]", "values": [{"measurement": "effect of XENICAL on EPA incorporation in red blood cells", "setting": "[1]; fish oil + XENICAL compared with fish oil without XENICAL, day 7", "result": "decreases EPA incorporation in red blood cells"}]}, {"smiles": "CC/C=C\\C/C=C\\C/C=C\\C/C=C\\C/C=C\\CCCC(=O)OCC(O)CO", "note": "(stereo not drawn) [sn-1(3) MAG, sn-1(3)-monoeicosapentaenoylglycerol]", "values": [{"measurement": "incorporation of LC-PUFAs in tissue", "setting": "[1]; conditions of lipid maldigestion or malabsorption (XENICAL), comparison of groups A, B and C", "result": "improved"}, {"measurement": "level of EPA incorporated in red blood cells", "setting": "[1]; compared with fish oil group without XENICAL", "result": "even higher than the fish oil group"}, {"measurement": "level of EPA incorporated in red blood cells", "setting": "[1]; fed 21 days, compared with fish oil + XENICAL, all P values lower than 0.05, listed as sn-1(3) MAG that contained EPA", "result": "statistically higher"}, {"measurement": "level of EPA incorporated in red blood cells", "setting": "[1]; fed 21 days, compared with fish oil + XENICAL, all P values lower than 0.05, listed as sn-1(3)MAGs", "result": "significantly higher"}, {"measurement": "chronic effect: accretion of EPA in erythrocytes as percentage of total fatty acids", "setting": "[2]; after 21 days, with XENICAL", "result": "statistically significant"}, {"measurement": "chronic effect: accretion of EPA in erythrocytes as percentage of total fatty acids", "setting": "[2]; after 21 days, with XENICAL, listed as sn-1(3)MAGs", "result": "significantly higher"}, {"measurement": "chronic effect: accretion of EPA in plasma as percentage of total fatty acids", "setting": "[2]; after 21 days, with XENICAL, relative to fish oil + XENICAL, p=0.0003 (FIG. 7)", "result": "statistically significant"}, {"measurement": "carrier for EPA (overall conclusion of the clinical trial)", "setting": "[2]; human subjects treated with XENICAL, compared with fish oil (TAG)", "result": "better carrier for EPA than fish oil (TAG)"}]}]}
